In US10668040B2, “Treatment of urea cycle disorders in neonates and infants” (Horizon Therapeutics, LLC, priority 2017, dated 2020):

Tests used:
[1] = Pharmacokinetics of HPN-100 and NaPBA, study HPN-100-012; type: in vivo, human; conditions: HPN-100-012 (N = 15)
Excerpt: (§1) The pharmacokinetics of the short term studies can be summarized as follows. Mean exposure levels of HPN-100 metabolites PBA, PAA, and PAGN after doses of HPN-100 and NaPBA with meals (TID) in pediatric (29 days to 17 years of age) UCD patients in HPN-100-005 and HPN-100-012 studies are summarized below. The mean exposure to PBA, the parent metabolite, and mean exposure to PAGN, the terminal metabolite, show no systematic variation across age groups, while PAA exposure tended to decrease with increasing age, a finding consistent with those from population PK modeling which indicate that the rate of clearance/metabolism of PAA varies directly with body size. While systemic metabolite exposure, assessed as peak plasma concentration (Cmax) or AUC, is generally similar for HPN-100 and NaPBA, the minimum concentration (Cmin-ss) was higher—and/or percent-fluctuation less—for plasma PAGN, a finding consistent with slower gastrointestinal absorption of PBA when administered orally as HPN-100.

[2] = HPN-100-009 (Example 2): plasma PBA, PAA, PAGN PK on first full day of RAVICTI dosing; type: in vivo, human; conditions: Age 2 Months to <2 Years, mean (SD)
Excerpt: Plasma Phenylbutyrate/Phenylbutyric Acid (PB A) 1) Maximum Plasma Concentration (Cmax); 2) Minimum Plasma Concentration (Cmin); 3) Area Under the Curve from Time Zero to the Time of Last Quantifiable Concentration (AUC[0-Last]); and 4) Time to Cmax (Tmax) on the First Full Day of RAVICTI® Dosing.
(§2) End point description. Pharmacokinetic (PK) Evaluable Population: all subjects from the safety population with individual concentration-time profiles that allow computation of meaningful PK parameter values. End point timeframe: Hour 0 and between 4 and 6 hours, 8 hours, and between 12 and 24 hours after the first dose of the day on Day 1 for stable subjects and on Day 2 for subjects in HAC.
Plasma Phenylacetate/Phenylacetic Acid (PAA) 1) Maximum Plasma Concentration (Cmax); 2) Minimum Plasma Concentration (Cmin); 3) Area Under the Curve from Time Zero to the Time of Last Quantifiable Concentration (AUC[0-Last]); and 4) Time to Cmax (Tmax) on the First Full Day of RAVICTI® Dosing.
as §2, with “PK” for “Pharmacokinetic (PK)”
Plasma Phenylacetylglutamine (PAGN) 1) Maximum Plasma Concentration (Cmax); 2) Minimum Plasma Concentration (Cmin); 3) Area Under the Curve from Time Zero to the Time of Last Quantifiable Concentration (AUC[0-Last]); and 4) Time to Cmax (Tmax) on the First Full Day of RAVICTI® Dosing.

UCD patients = conditions: 4 patients aged 2 months to 2 years; cited from earlier work
[3] = Pharmacokinetics of HPN-100 and NaPBA, study HPN-100-005; type: in vivo, human; conditions: HPN-100-005 (N = 11)
Excerpt: as §1

In the case of `O=C(CCCc1ccccc1)OCC(COC(=O)CCCc1ccccc1)OC(=O)CCCc1ccccc1` [RAVICTI, benzenebutanoic acid, 1′,1″-(1,2,3-propanetriyl) ester], the “Plasma PAA % Fluctuation” value ([1]; mean (CV %)) is reported as 2141 (145.0) %, the “Plasma PAA AUC0-24” value ([1]; mean (CV %)) is reported as 1096 (214.0) μg · h/mL and the “Plasma PAA CLss/F” value ([1]; mean (CV %)) is reported as 25538 (116.8) mL/min. The “Plasma PAA Cmax-ss” value ([1]; mean (CV %)) was 84.7 (148.3) μg/mL, the “Plasma PAA Cmin-ss” value ([1]; mean (CV %)) was 26.1 (360.8) μg/mL and the “Plasma PAGN % Fluctuation” value ([1]; mean (CV %)) was 907 (116.7) %. The “Plasma PAGN AUC0-24” value ([1]; mean (CV %)) was 1131 (71.2) μg · h/mL, the “Plasma PAGN CLss/F” value ([1]; mean (CV %)) was 10830 (85.6) mL/min and the “Plasma PAGN Cmax-ss” value ([1]; mean (CV %)) was 85.5 (53.7) μg/mL. The “Plasma PAGN Cmin-ss” value ([1]; mean (CV %)) was 19.9 (173.4) μg/mL, the “Plasma PBA % Fluctuation” value ([1]; mean (CV %)) was 1781 (84.6) % and the “Plasma PBA AUC0-24” value ([1]; mean (CV %)) was 255 (54.5) μg · h/mL. The “Plasma PBA CLss/F” value ([1]; mean (CV %)) was 22610 (48.6) mL/min, the “Plasma PBA Cmax-ss” value ([1]; mean (CV %)) was 36.8 (59.0) μg/mL and the “Plasma PBA Cmin-ss” value ([1]; mean (CV %)) was 0.750 (192.7) μg/mL. For the same compound, the “Plasma PAA Tmax-ss” value ([1]; median) was 8.00 h, the “Plasma PAGN Tmax-ss” value ([1]; median) was 7.92 h and the “Plasma PBA Tmax-ss” value ([1]; median) was 8.00 h. The “Plasma PAA AUC[0-last]” value [2] was 246.126 (±238.547) (μg * hr/mL), the “Plasma PAA Cmax” value [2] was 36.52 (±31.784) (μg/mL) and the “Plasma PAA Cmin” value [2] was 4.197 (±6.434) (μg/mL). The “Plasma PAA Tmax” value [2] was 7.422 (±7.351) (hrs), the “Plasma PAGN AUC[0-last]” value [2] was 583.835 (±285.241) (μg * hr/mL) and the “Plasma PAGN Cmax” value [2] was 62.45 (±27.281) (μg/mL). The “Plasma PAGN Cmin” value [2] was 20.62 (±14.529) (μg/mL), the “Plasma PAGN Tmax” value [2] was 6.573 (±7.181) (hrs) and the “Plasma PBA AUC[0-last]” value [2] was 280.936 (±293.553) (μg * hr/mL). The “Plasma PBA Cmax” value [2] was 42.44 (±36.715) (μg/mL), the “Plasma PBA Cmin” value [2] was 1.697 (±2.254) (μg/mL) and the “Plasma PBA Tmax” value [2] was 8.383 (±4.564) (hrs). The “PAA exposure, 24-hour area under the curve, vs NaPBA” value (UCD patients) was “very similar”, the “mean ammonia exposure, 24-hour area under the curve, vs NaPBA” value (UCD patients) was “non-inferior” and the “Plasma PAA % Fluctuation” value ([3]; mean (CV %)) was 3483 (51.5) %. For the same compound, the “Plasma PAA AUC0-24” value ([3]; mean (CV %)) was 964 (63.6) μg · h/mL, the “Plasma PAA CLss/F” value ([3]; mean (CV %)) was 15082 (101.4) mL/min and the “Plasma PAA Cmax-ss” value ([3]; mean (CV %)) was 90.5 (69.1) μg/mL. The “Plasma PAA Cmin-ss” value ([3]; mean (CV %)) was 2.99 (122.1) μg/mL, the “Plasma PAGN % Fluctuation” value ([3]; mean (CV %)) was 1001 (84.5) % and the “Plasma PAGN AUC0-24” value ([3]; mean (CV %)) was 1378 (40.2) μg · h/mL. The “Plasma PAGN CLss/F” value ([3]; mean (CV %)) was 14237 (36.8) mL/min, the “Plasma PAGN Cmax-ss” value ([3]; mean (CV %)) was 105 (33.5) μg/mL and the “Plasma PAGN Cmin-ss” value ([3]; mean (CV %)) was 13.1 (64.9) μg/mL. The “Plasma PBA % Fluctuation” value ([3]; mean (CV %)) was 5690 (56.8) %, the “Plasma PBA AUC0-24” value ([3]; mean (CV %)) was 631 (44.9) μg · h/mL and the “Plasma PBA CLss/F” value ([3]; mean (CV %)) was 20545 (47.2) mL/min. For the same compound, the “Plasma PBA Cmax-ss” value ([3]; mean (CV %)) was 95.6 (42.0) μg/mL, the “Plasma PBA Cmin-ss” value ([3]; mean (CV %)) was 1.50 (99.8) μg/mL and the “U-PAGN Ae” value ([3]; mean (CV %)) was 12501037 (56.9) μg. The “U-PAGN Ae0-12” value ([3]; mean (CV %)) was 5611719 (74.7) μg, the “U-PAGN Ae12-24” value ([3]; mean (CV %)) was 6889318 (50.1) μg and the “U-PAGN Fe0-12” value ([3]; mean (CV %)) was 28.9 (42.1) %. For the same compound, the “U-PAGN Fe12-24” value ([3]; mean (CV %)) was 37.4 (32.3) %, the “U-PAGN Fe % dose” value ([3]; mean (CV %)) was 66.4 (23.9) % and the “Plasma PAA Tmax-ss” value ([3]; median) was 11.92 h. For the same compound, the “Plasma PAGN Tmax-ss” value ([3]; median) was 12.00 h and the “Plasma PBA Tmax-ss” value ([3]; median) was 12.00 h.
